For the test, the target named is human PAD4 (hPAD4) (Homo sapiens, UniProt Q9UM07). Briefly: RFMS human PAD4 functional assay (rapid-fire mass spectrum). Conditions: 5 nM hPAD4 enzyme, 250 μM BAEE, 50 μM Calcium; 30 min preincubation, 90 min reaction at 37° C. It is filed as biochemical. The essentials:
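PAD4 (10 nM) preincubated 30 min with compound (top final 50 μM), then BAEE substrate added in pH 7.5 HEPES buffer with DTT, 50 μM calcium, TPEN; 90 min at 37° C. After TCA quench, citrulline derivatized with phenyl glyoxal (4 mM final, 30 min, 37° C) and quantified by RapidFire MS against internal standard.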

human PAD4 (hPAD4), sequence (Q9UM07 whole entry): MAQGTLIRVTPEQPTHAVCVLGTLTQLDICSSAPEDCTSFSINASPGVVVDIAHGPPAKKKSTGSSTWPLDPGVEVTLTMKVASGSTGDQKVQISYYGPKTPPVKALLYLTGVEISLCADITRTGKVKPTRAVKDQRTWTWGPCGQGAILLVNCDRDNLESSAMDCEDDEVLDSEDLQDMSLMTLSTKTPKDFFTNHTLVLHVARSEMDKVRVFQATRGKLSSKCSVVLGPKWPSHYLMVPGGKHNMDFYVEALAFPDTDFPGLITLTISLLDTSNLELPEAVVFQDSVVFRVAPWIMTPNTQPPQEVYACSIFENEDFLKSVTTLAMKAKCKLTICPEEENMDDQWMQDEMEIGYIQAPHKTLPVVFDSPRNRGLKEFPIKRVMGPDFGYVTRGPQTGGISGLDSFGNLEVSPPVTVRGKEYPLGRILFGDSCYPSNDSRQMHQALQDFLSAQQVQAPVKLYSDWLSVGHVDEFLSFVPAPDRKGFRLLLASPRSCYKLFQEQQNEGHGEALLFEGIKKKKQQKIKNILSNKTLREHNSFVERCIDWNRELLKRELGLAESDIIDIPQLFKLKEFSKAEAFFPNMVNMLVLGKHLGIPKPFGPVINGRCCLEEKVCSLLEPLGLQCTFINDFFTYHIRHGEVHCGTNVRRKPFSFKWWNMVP

As for `COc1cc(C(=O)N2CC3CCC2[C@@H]3N)cc2nc(-c3cc4ccc(C(C)O)cc4n3CC3CC3)n(CC3CN(C(=O)c4ccc(C#N)cc4)C3)c12` (stereo partly drawn) [Example 523, 4-[3-({5-[(7R)-7-amino-2-azabicyclo[2.2.1]heptane-2-carbonyl]-2-[1-(cyclopropylmethyl)-6-(1-hydroxyethyl)-1H-indol-2-yl]-7-methoxy-1H-1,3-benzodiazol-1-yl}methyl)azetidine-1-carbonyl]benzonitrile], the IC50 is 34 nM.
Take `COc1cc(C(=O)N2C[C@H]3CC[C@@H]2[C@@H]3N)cc2nc(-c3cc4cccnc4n3CC3CC3)n(CC3CN(c4ccccc4C(C)=O)C3)c12` [Example 85, 1-{2-[3-({5-[(1R,4R,7R)-7-amino-2-azabicyclo[2.2.1]heptane-2-carbonyl]-2-[1-(cyclopropylmethyl)-1H-pyrrolo[2,3-b]pyridin-2-yl]-7-methoxy-1H-1,3-benzodiazol-1-yl}methyl)azetidin-1-yl]phenyl}ethan-1-one]: the IC50 was 638 nM.
In the case of `COc1cc(C(=O)N2CC3CCC2[C@@H]3N)cc2nc(-c3cc4cccnc4n3CC3CC3)n(C[C@@H]3CCN(c4nccnc4C#N)C3)c12` (stereo partly drawn) [Example 212, 3-[(3R)-3-({5-[(1R,4R,7R)-7-amino-2-azabicyclo[2.2.1]heptane-2-carbonyl]-2-[1-(cyclopropylmethyl)-1H-pyrrolo[2,3-b]pyridin-2-yl]-7-methoxy-1H-1,3-benzodiazol-1-yl}methyl)pyrrolidin-1-yl]pyrazine-2-carbonitrite] it was 81 nM; in that of `COc1cc(C(=O)N2C[C@H]3CC[C@@H]2[C@@H]3N)cc2nc(-c3cc4cccnc4n3CC3CC3)n(CC3CN(c4cccc5c4CNC5=O)C3)c12` [Example 55, 4-[3-({5-[(1R,4R,7R)-7-amino-2-azabicyclo[2.2.1]heptane-2-carbonyl]-2-[1-(cyclopropylmethyl)-1H-pyrrolo[2,3-b]pyridin-2-yl]-7-methoxy-1H-1,3-benzodiazol-1-yl}methyl)azetidin-1-yl]-2,3-dihydro-1H-isoindol-1-one], 163 nM; in that of `COc1cc(C(=O)N2C[C@H]3CC[C@@H]2[C@@H]3N)cc2nc(-c3cc4cccnc4n3CC3CC3)n(CC3CN(c4ccnc(S(C)(=O)=O)n4)C3)c12` [Example 13, (1R,4R,7R)-2-{2-[1-(cyclopropylmethyl)-1H-pyrrolo[2,3-b]pyridin-2-yl]-1-{[1-(2-methanesulfonylpyrimidin-4-yl)azetidin-3-yl]methyl}-7-methoxy-1H-1,3-benzodiazole-5-carbonyl}-2-azabicyclo[2.2.1]heptan-7-amine], 38 nM.
On to `COc1cc(C(=O)N2C[C@H]3CC[C@@H]2[C@@H]3N)cc2nc(-c3cc4ccccc4n3CC3CC3)n(Cc3ccnn3C)c12` [Example 265, (1R,4R,7R)-2-{2-[1-(cyclopropylmethyl)-1H-indol-2-yl]-7-methoxy-1-[(1-methyl-1H-pyrazol-5-yl)methyl]-1H-1,3-benzodiazole-5-carbonyl}-2-azabicyclo[2.2.1]heptan-7-amine], for which the half-inhibitory concentration (IC50) worked out at 65 nM.
Take `COc1cc(C(=O)N2C[C@H]3CC[C@@H]2[C@@H]3N)cc2nc(-c3cc4cccnc4n3CC3CC3)n(CC3CN(c4cncc(C#N)c4)C3)c12` [Example 7, 5-[3-({5-[(1R,4R,7R)-7-amino-2-azabicyclo[2.2.1]heptane-2-carbonyl]-2-[1-(cyclopropylmethyl)-1H-pyrrolo[2,3-b]pyridin-2-yl]-7-methoxy-1H-1,3-benzodiazol-1-yl}methyl)azetidin-1-yl]pyridine-3-carbonitrile]: the IC50 came out at 94 nM.
In the case of `COc1cc(C(=O)N2C[C@H]3CC[C@@H]2[C@@H]3N)cc2nc(-c3cc4ccccc4n3CC3CC3)n(C[C@H]3CCN(c4ccnc(C5CC5)n4)C3)c12` [Example 227, (1R,4R,7R)-2-{2-[1-(cyclopropylmethyl)-1H-indo1-2-yl]-1-{[(3S)-1-(2-cyclopropylpyrimidin-4-yl)pyrrolidin-3-yl]methyl}-7-methoxy-1H-1,3-benzodiazole-5-carbonyl}-2-azabicyclo[2.2.1]heptan-7-amine] it was 41 nM; in that of `COc1cc(C(=O)N2CC3CCC2[C@@H]3N)cc2nc(-c3cc4cccnc4n3CC3CC3)n(Cc3cn[nH]c3)c12` (stereo partly drawn) [Example 488, (7R)-2-{2-[1-(cyclopropylmethyl)-1H-pyrrolo[2,3-b]pyridin-2-yl]-7-methoxy-1-[(1H-pyrazol-4-yl)methyl]-1H-1,3-benzodiazole-5-carbonyl}-2-azabicyclo[2.2.1]heptan-7-amine], 55 nM.
In the case of `COc1cc(C(=O)C2C[C@H]3CC[C@H]2[C@@H]3N)cc2nc(-c3cc4ccccc4n3CC3CC3)n(C[C@H]3CCNC3)c12` (stereo partly drawn) [Example 273, (1R,4R,7R)-2-{2-[1-(cyclopropylmethyl)-1H-indol-2-yl]-7-methoxy-1-{[(3S)-pyrrolidin-3-yl]methyl}-1H-1,3-benzodiazole-5-carbonyl}bicyclo[2.2.1]heptan-7-amine] it was 33 nM.
`COc1cc(C(=O)N2CC3CCC2[C@@H]3N)cc2nc(-c3cc4ccccc4n3CC3CC3)n(CC3CN(C(=O)c4ccsc4)C3)c12` (stereo partly drawn) [Example 416, (7R)-2-{2-[1-(cyclopropylmethyl)-1H-indol-2-yl]-7-methoxy-1-{[1-(thiophene-3-carbonyl)azetidin-3-yl]methyl}-1H-1,3-benzodiazole-5-carbonyl}-2-azabicyclo[2.2.1]heptan-7-amine]: the half-maximal inhibitory concentration (IC50) was 10 nM.
With `COc1cncc(-n2cc(Cn3c(-c4cc5ccccc5n4CC4CC4)nc4cc(C(=O)N5CC6CCC5[C@@H]6N)cc(OC)c43)cn2)c1` (stereo partly drawn) [Example 349, (7R)-2-{2-[1-(cyclopropylmethyl)-1H-indol-2-yl]-7-methoxy-1-{[1-(5-methoxypyridin-3-yl)-1H-pyrazol-4-yl]methyl}-1H-1,3-benzodiazole-5-carbonyl)-2-azabicyclo[2.2.1]heptan-7-amine], the IC50 was found to be 15 nM.
With `COc1cccc(C(=O)N2CC(Cn3c(-c4cc5ccccc5n4CC4CC4)nc4cc(C(=O)N5C[C@H]6CC[C@@H]5[C@@H]6N)cc(OC)c43)C2)c1` [Example 158, (1R,4R,7R)-2-{2-[1-(cyclopropylmethyl)-1H-indol-2-yl]-7-methoxy-1-{[1-(3-methoxybenzoyl)azetidin-3-yl]methyl}-1H-1,3-benzodiazole-5-carbonyl}-2-azabicyclo[2.2.1]heptan-7-amine], the IC50 was 23 nM.
Take `COc1cc(C(=O)N2C[C@H](N)C[C@@H](F)C2)cc2nc(-c3cc4ccccc4n3CC3CC3)n(Cc3cnn(C)c3)c12` [Example 257, (3R,5R)-1-{2-[1-(cyclopropylmethyl)-1H-indol-2-yl]-7-methoxy-1-[(1-methyl-1H-pyrazol-4-yl)methyl]-1H-1,3-benzodiazole-5-carbonyl}-5-fluoropiperidin-3-amine]: the IC50 is 41 nM.
As to `COc1cc(C(=O)N2C[C@H]3CC[C@@H]2[C@@H]3N)cc2nc(-c3cc4cccnc4n3CC3CC3)n(CC3CN(C(=O)c4ccncc4)C3)c12` [Example 117, (1R,4R,7R)-2-{2-[1-(cyclopropylmethyl)-1H-pyrrolo[2,3-b]pyridin-2-yl]-7-methoxy-1-{[1-(pyridine-4-carbonyl)azetidin-3-yl]methyl}-1H-1,3-benzodiazole-5-carbonyl}-2-azabicyclo[2.2.1]heptan-7-amine], the IC50 was found to be 66 nM.
Consider `COc1cc(C(=O)N2CC3CCC2[C@@H]3N)cc2nc(-c3cc4cccnc4n3CC3CC3)n(CC3CN(C(=O)c4cc(F)cc(F)c4)C3)c12` (stereo partly drawn) [Example 427, (7R)-2-{2-[1-(cyclopropylmethyl)-1H-pyrrolo[2,3-b]pyridin-2-yl]-1-{[1-(3,5-difluorobenzoyl)azetidin-3-yl]methyl}-7-methoxy-1H-1,3-benzodiazole-5-carbonyl}-2-azabicyclo[2.2.1]heptan-7-amine], for which the IC50 is 24 nM.
In the case of `COc1cc(C(=O)N2CC3CCC2[C@@H]3N)cc2nc(-c3cc4cccnc4n3CC3CC3)n([C@H]3C[C@@H](NS(C)(=O)=O)C3)c12` (stereo partly drawn) [Example 297, N-[(1s,3s)-3-{5-[(1R,4R,7R)-7-amino-2-azabicyclo[2.2.1]heptane-2-carbonyl]-2-[1-(cyclopropylmethyl)-1H-pyrrolo[2,3-b]pyridin-2-yl]-7-methoxy-1H-1,3-benzodiazol-1-yl}cyclobutyl]methanesulfonamide] it was 2100 nM; in that of `COc1cc(C(=O)N2CC3CCC2[C@@H]3N)cc2nc(-c3cc4ccccc4n3CC3CC3)n(Cc3cnnn3C)c12` (stereo partly drawn) [Example 514, (7R)-2-{2-[1-(cyclopropylmethyl)-1H-indol-2-yl]-7-methoxy-1-[(1-methyl-1H-1,2,3-triazol-5-yl)methyl]-1H-1,3-benzodiazole-5-carbonyl}-2-azabicyclo[2.2.1]heptan-7-amine], 409 nM; in that of `COc1cc(C(=O)N2CC3CCC2[C@@H]3N)cc2nc(-c3cc4ccccc4n3CC3CC3)n(CC3CN(C(=O)c4ccnc(F)c4)C3)c12` (stereo partly drawn) [Example 419, (7R)-2-{2-[1-(cyclopropylmethyl)-1H-indol-2-yl]-1-{[1-(2-fluoropyridine-4-carbonyl)azetidin-3-yl]methyl}-7-methoxy-1H-1,3-benzodiazole-5-carbonyl}-2-azaticyclo[2.2.1]heptan-7-amine], 16 nM.
In the case of `COc1cc(C(=O)N2C[C@H]3CC[C@@H]2[C@@H]3N)cc2nc(-c3cc4cccnc4n3C)n(C[C@H]3CCN(c4ccnc(C#N)n4)C3)c12` [Example 210, 4-[(3S)-3-({5-[(1R,4R,7R)-7-amino-2-azabicyclo[2.2.1]heptane-2-carbonyl]-7-methoxy-2-{1-methyl-1H-pyrrolo[2,3-b]pyridin-2-yl}-1H-1,3-benzodiazol-1-yl}methyl)pyrrolidin-1-yl]pyrimidine-2-carbonitrile] it was 75 nM.

As a reminder, the IC50 is the concentration that inhibits the measured activity by half.

The record behind these values is patent publication US12692254B2, “Benzimidazole inhibitors of PAD enzymes” (BRISTOL-MYERS SQUIBB COMPANY, priority 2018, dated 2026).
